What was measured:
[1] = logP determination by HPLC on reversed-phase column (EEC Directive 79/831 annex V.A8); format: physicochemical
Method: Calibration was carried out using unbranched alkan-2-ones (having 3 to 16 carbon atoms) with known logP values (determination of logP values by the retention times using linear interpolation between two successive alkanone).

[2] = system: green peach aphid (Myzus persicae); assay: Myzus test (MYZUPE spray treatment); format: in vivo; details: 500 g/ha, spray treatment of Chinese cabbage disks, 100% = all aphids killed
Method: Myzus Test (MYZUPE Spray Treatment)
To produce a suitable preparation of active compound, 1 part by weight of active compound is mixed with the stated amounts of solvents and emulsifier, and the concentrate is diluted with emulsifier-containing water to the desired concentration.
Disks of Chinese cabbage (Brassica pekinensis) which are infested by all stages of green peach aphid (Myzus persicae) are sprayed with a preparation of active compound of the desired concentration.
(§1) After the desired period of time, the effect in % is determined. 100% means that all aphids have been killed; 0% means that none of the aphids have been killed.

[3] = system: cotton aphid (Aphis gossypii); assay: Aphis gossypii test (APHIGO); format: in vivo; details: 100 ppm, cotton leaves dipped, 100% = all aphids killed
Method: Aphis Gossypii Test (APHIGO)
To produce a suitable preparation of active compound, 1 part by weight of active compound is mixed with the stated amounts of solvent and emulsifier, and the concentrate is diluted with emulsifier-containing water to the desired concentration.
Cotton leaves (Gossypium hirsutum) which are heavily infested by the cotton aphid (Aphis gossypii) are treated by being dipped into the preparation of active compound of the desired concentration.
After the desired period of time, the kill in % is determined. 100% means that all aphids have been killed; 0% means that none of the aphids have been killed.

[4] = system: Myzus persicae; assay: Myzus persicae (MYZUPE U); format: in vivo; details: 30 ppm, ingestion, 100% = all aphids killed
Method: Myzus Persicae (MYZUPE U)
To produce a suitable preparation of active compound, the active compound is mixed with the stated amounts of solvent, and the concentrate is diluted with stained water to the desired concentration.
The Myzus persicae are provided with a preparation of active compound of the desired concentration for ingestion.
as §1

[5] = reversed-phase HPLC column, in the preparation example, pH range not marked
[6] = reversed-phase C18 HPLC column, HPLC, reversed-phase C 18, 43° C., acidic range (pH 2.3), marked a)

| Structure (SMILES) | chromatographic logP [1, 5] | chromatographic logP [1, 6] | effect in % (% 5 d) [2] [%] | kill in % (% 6 d) [3] [%] | effect in % (% 6-7 d) [4] [%] |
| --- | --- | --- | --- | --- | --- |
| CC#CCOc1cc(-c2ccsc2)ncn1 [Example 1, 4-(2-butyn-1-yl-oxy)-6-(3-thienyl)-pyrimidine] | 2.84 |  |  |  |  |
| CC#CCOc1cc(-n2cccn2)ncn1 [Example 8] |  | 2.55 | 90 |  |  |
| CC#CCOc1cc(-n2ccnc2)ncn1 [Example 12] |  | 1 |  |  | 100 |
| CC#CCOc1cc(-n2cc(Cl)cn2)ncn1 [Example 2, 4-butynyloxy-6-(4-chloropyrazol-1-yl)pyrimidine] | 3.65 |  |  |  |  |

Continued, in another order:

| chromatographic logP [1, 5] | chromatographic logP [1, 6] | Structure (SMILES) | effect in % (% 5 d) [2] [%] | kill in % (% 6 d) [3] [%] | effect in % (% 6-7 d) [4] [%] |
| --- | --- | --- | --- | --- | --- |
|  | 3.26 | CC#CCOc1cc(-c2cscc2C)ncn1 [Example 25] | 80 | 80 |  |
| 2.31 |  | Clc1cc(-c2ccsc2)ncn1 [II-1, 4-chloro-6-(3-thienyl)pyrimidine] |  |  |  |
|  | 2.31 | CC#CCOc1cc(-c2ccccn2)ncn1 [Example 3] | 80 |  |  |
|  | 2.95 | CC#CCOc1cc(-c2cccs2)ncn1 [Example 6] | 90 |  |  |
